Literature values as cited in publication PMC4224523 (Molecular Pharmaceutics, 2014).

Details: general statement in introduction

SMILES: FC1(F)OC(F)(F)C(F)(F)OC(F)(F)C(F)(F)OC(F)(F)C(F)(F)OC(F)(F)C(F)(F)OC1(F)F [PFCE, Perfluoro-15-crown-5-ether]
- solubility in solvents: insoluble in most solvents
